Data on 15 compounds can be found in patent publication US12516056B2, “Compounds for inhibition of janus kinase 1” (MANKIND PHARMA LTD., priority 2019, dated 2026).

Each structure is given as a SMILES string. Where a name gives a salt, the structure may show the parent alone.

Assay [1] addresses T1, Recombinant JAK3 (Homo sapiens, UniProt P52333).
T1 construct: purchased Carna Biosciences
T1 sequence (P52333 1-1124): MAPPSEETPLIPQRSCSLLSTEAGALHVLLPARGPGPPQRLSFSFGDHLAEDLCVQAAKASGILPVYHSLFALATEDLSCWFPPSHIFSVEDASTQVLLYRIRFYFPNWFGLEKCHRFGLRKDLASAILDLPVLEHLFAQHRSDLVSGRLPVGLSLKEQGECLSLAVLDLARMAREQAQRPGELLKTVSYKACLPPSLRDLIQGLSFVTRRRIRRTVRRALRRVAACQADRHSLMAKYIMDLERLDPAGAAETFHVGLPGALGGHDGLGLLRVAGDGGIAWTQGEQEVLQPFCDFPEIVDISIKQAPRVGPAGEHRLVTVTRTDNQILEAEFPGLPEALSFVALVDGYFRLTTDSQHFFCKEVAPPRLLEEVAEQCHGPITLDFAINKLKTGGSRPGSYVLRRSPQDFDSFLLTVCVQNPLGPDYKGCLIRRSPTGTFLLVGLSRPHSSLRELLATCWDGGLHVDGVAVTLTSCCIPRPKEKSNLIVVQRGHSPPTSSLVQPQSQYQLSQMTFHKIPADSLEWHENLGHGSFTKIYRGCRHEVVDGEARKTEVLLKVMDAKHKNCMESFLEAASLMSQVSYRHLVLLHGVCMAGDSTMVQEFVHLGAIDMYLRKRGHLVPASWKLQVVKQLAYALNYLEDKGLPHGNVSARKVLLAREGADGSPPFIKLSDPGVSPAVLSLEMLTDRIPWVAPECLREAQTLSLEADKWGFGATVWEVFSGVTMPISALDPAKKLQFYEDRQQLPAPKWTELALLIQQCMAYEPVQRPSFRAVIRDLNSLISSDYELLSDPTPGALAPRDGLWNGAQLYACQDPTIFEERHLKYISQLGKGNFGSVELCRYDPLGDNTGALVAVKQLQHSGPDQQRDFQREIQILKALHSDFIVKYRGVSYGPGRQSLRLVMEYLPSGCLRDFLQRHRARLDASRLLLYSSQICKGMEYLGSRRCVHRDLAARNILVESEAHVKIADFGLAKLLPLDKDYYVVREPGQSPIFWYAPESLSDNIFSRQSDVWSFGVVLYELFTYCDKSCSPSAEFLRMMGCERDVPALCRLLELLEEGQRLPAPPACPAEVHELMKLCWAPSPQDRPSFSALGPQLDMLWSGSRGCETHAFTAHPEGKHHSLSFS
The assay is described as follows: JAK biochemical assay (LANCE Ultra TR-FRET), JAK3. As to conditions: recombinant JAK3, TR-FRET; read-out: Biochemical Assay (μM) JAK3. Put shortly: (§1)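 TR-FRET read-out of ULight substrate phosphorylation by recombinant kinase gives % inhibition relative to vehicle. The assay buffer is HEPES pH 7.5 with EGTA, MgCl2, DTT and Tween-20.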
In general terms: TR-FRET usually uses a lanthanide donor and a delayed reading to cut background.

In assay [2] the target is T2, Recombinant TYK2 (Homo sapiens, UniProt P29597).
T2 construct: purchased Carna Biosciences
T2 sequence (P29597 whole entry): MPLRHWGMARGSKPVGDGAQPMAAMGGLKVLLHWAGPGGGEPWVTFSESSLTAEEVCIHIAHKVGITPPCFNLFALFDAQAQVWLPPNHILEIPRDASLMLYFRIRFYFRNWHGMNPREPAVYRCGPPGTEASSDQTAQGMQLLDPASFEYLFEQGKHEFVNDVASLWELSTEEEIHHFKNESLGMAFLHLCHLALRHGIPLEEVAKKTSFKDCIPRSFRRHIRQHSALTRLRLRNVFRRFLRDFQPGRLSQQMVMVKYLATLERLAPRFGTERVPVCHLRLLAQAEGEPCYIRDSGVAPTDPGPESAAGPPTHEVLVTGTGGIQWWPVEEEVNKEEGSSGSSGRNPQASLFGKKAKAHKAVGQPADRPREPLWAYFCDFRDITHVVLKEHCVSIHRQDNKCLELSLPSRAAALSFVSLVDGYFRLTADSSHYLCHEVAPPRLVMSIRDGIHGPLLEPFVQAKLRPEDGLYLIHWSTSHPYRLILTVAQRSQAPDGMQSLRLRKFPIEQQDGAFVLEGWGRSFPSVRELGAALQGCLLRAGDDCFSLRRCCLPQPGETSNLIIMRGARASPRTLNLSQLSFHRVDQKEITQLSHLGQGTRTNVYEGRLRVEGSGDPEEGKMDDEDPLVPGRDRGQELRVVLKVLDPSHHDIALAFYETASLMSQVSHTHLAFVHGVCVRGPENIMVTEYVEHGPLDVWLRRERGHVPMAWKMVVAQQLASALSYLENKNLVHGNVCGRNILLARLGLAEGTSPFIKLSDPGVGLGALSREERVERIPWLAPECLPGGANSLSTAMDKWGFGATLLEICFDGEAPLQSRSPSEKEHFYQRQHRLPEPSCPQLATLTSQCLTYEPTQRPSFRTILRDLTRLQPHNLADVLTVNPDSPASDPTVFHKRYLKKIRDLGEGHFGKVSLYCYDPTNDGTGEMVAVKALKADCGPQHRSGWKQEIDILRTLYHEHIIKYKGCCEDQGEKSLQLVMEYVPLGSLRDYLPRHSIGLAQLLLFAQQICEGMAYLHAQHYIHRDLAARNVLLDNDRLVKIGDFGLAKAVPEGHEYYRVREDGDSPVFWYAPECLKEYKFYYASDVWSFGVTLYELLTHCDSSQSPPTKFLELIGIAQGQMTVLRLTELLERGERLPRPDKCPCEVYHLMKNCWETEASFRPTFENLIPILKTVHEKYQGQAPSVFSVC
The assay is described as follows: JAK biochemical assay (LANCE Ultra TR-FRET), TYK2. Conditions: recombinant TYK2, TR-FRET; read-out: Biochemical Assay (μM) TYK2. Put shortly: as §1

Assay [3] deals with STAT3 phosphorylation by IL-6 in TF-1 cells. The assay is described as follows: JAK cellular assay: STAT3 phosphorylation by IL-6 in TF-1 cells (HTRF). In kind it is cell-based. As to conditions: Homo sapiens, TF-1, TF-1 cells, IL-6 30 ng/ml, pSTAT3 HTRF; read-out: Cell Based Assay (μM) TF-1/IL-6/pSTAT3. The protocol:
(§2) TF-1 cells were starved overnight in OptiMEM medium with 0.5% charcoal stripped fetal bovine serum, 0.1 mM nonessential amino acids (NEAA), 1 mM sodium pyruvate and without phenol red in CO2 incubator maintained at 37° c. Next day, cells were resuspended in RPMI without phenol red and dispensed into a 96 well plate at a final cell density of 1,20,000 cells per well. Compounds were diluted in DMSO and added to cells and incubated for 30 minutes in CO2 incubator maintained at 37° c. Final DMSO concentration in cell based assay was 0.2%. Human recombinant cytokines, IL-6 (30 ng/ml) and GMCSF (5 ng/ml) were added to the plate containing cells along with compound and incubated for 20 minutes with gentle tapping at every 5 minutes once. Compound mediated effects on STAT3 and STAT5 phosphorylation was measured in the lysates prepared by using CISBIO pSTAT3 and pSTAT5 detection kits by HTRF method. Background signal obtained from cells which were not activated with cytokines, was subtracted from vehicle controls and compound treated wells.

The test system of assay [4] is STAT5 phosphorylation by GMCSF in TF-1 cells. The assay is described as follows: JAK cellular assay: STAT5 phosphorylation by GMCSF in TF-1 cells (HTRF). Conditions: Homo sapiens; TF-1 cells, GMCSF 5 ng/ml, pSTAT5 HTRF; read-out: Cell Based Assay (μM) TF-1/GMCSF/pSTAT5. The format is cell-based. The protocol:
as §2

For assay [5], the target named is T3, Recombinant JAK1 (Homo sapiens, UniProt P23458).
T3 construct: purchased Carna Biosciences
T3 sequence (P23458 whole entry): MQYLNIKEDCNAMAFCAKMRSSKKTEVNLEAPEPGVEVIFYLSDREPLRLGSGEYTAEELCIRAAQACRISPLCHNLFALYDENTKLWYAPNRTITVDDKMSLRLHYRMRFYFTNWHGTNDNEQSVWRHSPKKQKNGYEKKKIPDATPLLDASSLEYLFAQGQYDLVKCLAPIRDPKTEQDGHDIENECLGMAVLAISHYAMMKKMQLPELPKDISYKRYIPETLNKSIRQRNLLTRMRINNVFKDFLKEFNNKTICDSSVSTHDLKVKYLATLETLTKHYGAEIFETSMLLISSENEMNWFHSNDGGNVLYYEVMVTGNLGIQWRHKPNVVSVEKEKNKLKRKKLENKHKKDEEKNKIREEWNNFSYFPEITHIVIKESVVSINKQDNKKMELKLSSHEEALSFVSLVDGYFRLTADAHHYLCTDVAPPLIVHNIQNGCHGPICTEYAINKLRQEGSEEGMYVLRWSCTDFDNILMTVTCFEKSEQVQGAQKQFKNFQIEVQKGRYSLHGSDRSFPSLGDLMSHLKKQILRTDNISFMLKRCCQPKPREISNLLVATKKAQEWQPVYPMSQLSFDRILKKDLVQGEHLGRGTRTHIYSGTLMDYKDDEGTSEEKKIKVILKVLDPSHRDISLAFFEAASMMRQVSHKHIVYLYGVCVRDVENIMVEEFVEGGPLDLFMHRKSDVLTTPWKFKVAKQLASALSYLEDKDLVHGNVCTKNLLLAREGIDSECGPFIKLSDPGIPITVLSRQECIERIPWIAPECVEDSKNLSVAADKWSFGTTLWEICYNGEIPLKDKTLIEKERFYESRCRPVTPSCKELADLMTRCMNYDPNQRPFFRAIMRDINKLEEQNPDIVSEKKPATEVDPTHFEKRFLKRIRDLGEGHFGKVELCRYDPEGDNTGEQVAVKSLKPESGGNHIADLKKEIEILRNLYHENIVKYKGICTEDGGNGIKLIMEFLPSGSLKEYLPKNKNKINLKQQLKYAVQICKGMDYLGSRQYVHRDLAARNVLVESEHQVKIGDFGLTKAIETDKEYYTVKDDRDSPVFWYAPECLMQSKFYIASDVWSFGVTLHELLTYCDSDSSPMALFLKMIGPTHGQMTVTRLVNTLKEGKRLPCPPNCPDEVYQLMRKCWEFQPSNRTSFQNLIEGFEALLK
The assay is described as follows: JAK biochemical assay (LANCE Ultra TR-FRET), JAK1. As to conditions: recombinant JAK1, TR-FRET; read-out: Biochemical Assay (μM) JAK1. The method, boiled down: as §1

Assay [6] concerns the target T4, Recombinant JAK2 (Homo sapiens, UniProt O60674).
T4 construct: purchased Carna Biosciences
The assay can be described thus: JAK biochemical assay (LANCE Ultra TR-FRET), JAK2. Conditions: recombinant JAK2, TR-FRET; read-out: Biochemical Assay (μM) JAK2. The method, boiled down:
as §1

T4 sequence (O60674 whole entry): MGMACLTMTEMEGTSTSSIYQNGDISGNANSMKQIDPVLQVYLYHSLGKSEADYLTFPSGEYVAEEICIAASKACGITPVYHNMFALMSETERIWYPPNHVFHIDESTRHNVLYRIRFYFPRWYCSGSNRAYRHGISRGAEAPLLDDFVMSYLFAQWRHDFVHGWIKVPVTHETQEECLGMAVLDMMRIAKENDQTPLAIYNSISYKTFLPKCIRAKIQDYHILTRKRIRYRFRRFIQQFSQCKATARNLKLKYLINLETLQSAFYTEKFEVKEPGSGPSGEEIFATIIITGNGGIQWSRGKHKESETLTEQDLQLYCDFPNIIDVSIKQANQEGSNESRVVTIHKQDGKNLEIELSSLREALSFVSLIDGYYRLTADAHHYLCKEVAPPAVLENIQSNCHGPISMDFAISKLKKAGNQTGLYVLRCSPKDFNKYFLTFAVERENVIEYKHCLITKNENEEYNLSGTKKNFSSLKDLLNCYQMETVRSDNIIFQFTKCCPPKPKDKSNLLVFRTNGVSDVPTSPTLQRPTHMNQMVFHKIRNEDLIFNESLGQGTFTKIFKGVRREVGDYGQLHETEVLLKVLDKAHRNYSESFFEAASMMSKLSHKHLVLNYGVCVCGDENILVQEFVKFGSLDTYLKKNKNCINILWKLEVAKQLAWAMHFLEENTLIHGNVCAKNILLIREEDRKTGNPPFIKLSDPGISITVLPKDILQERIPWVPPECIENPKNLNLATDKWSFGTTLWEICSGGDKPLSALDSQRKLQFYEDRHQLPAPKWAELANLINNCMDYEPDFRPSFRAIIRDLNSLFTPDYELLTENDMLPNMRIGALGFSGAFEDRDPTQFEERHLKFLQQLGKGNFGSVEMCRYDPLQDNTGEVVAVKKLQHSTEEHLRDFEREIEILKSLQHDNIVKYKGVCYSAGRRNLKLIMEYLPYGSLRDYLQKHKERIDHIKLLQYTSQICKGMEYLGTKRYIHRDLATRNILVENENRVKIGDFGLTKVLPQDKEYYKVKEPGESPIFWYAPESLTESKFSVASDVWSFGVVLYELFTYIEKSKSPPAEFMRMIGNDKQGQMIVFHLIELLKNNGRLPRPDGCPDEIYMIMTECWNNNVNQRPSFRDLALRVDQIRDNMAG

Consider `CC(N)CCC(c1ccc(-n2cc(-c3ccnc4[nH]cnc34)cn2)nc1)C(F)(F)F` (stereo not shown) [Example 1224, 5-(6-(4-(3H-imidazo[4,5-b]pyridin-7-yl)-1H-pyrazol-1-yl)pyridin-3-yl)-6,6,6-trifluorohexan-2-amine, TFA salt], for which the IC50 is 0.001 µM in assay [1], greater than 0.1 µM in assay [2], greater than 0.75 µM in assay [3] and greater than 1 µM in assay [4].
Take `N#CCc1cccc(-n2cc(-c3ccnc4[nH]cnc34)cn2)n1` [Example 1117, 2-(6-(4-(3H-imidazo[4,5-b]pyridin-7-yl)-1H-pyrazol-1-yl)pyridin-2-yl)acetonitrile]: the IC50 in assay [3] is greater than 1 µM; in assay [4] it was greater than 10 µM.
Consider `CN(C)C(=O)CC(c1ccc(-n2cc(-c3ccnc4[nH]cnc34)cn2)nc1)C(F)(F)F` (stereo not shown) [Example 1144, 3-(6-(4-(3H-imidazo[4,5-b]pyridin-7-yl)-1H-pyrazol-1-yl)pyridin-3-yl)-4,4,4-trifluoro-N,N-dimethylbutanamide], for which the IC50 in assay [1] was greater than 0.1 µM; in assay [2], greater than 1 µM; in assay [3], greater than 1 µM; in assay [4], greater than 10 µM.
As to `N#CCCC1CCN(C(=O)n2cc(-c3ccnc4[nH]c(=O)[nH]c34)cn2)C1` (stereo not shown) [Example 1061, 3-(1-(4-(2-oxo-2,3-dihydro-1H-imidazo[4,5-b]pyridin-7-yl)-1H-pyrazole-1-carbonyl)pyrrolidin-3-yl)propanenitrile], the IC50 in assay [5] was greater than 1 µM; in assay [1], greater than 1 µM; in assay [2] it was greater than 1 µM; in assay [3] it was greater than 10 µM; in assay [4] it was greater than 10 µM.
For the compound `COC(c1ccc(-n2cc(-c3ccnc4[nH]cnc34)cn2)nc1)(C1CCN(C)CC1)C(F)(F)F` (stereo not shown) [Example 1244, 7-(1-(5-(2,2,2-trifluoro-1-methoxy-1-(1-methylpiperidin-4-yl)ethyl)pyridin-2-yl)-1H-pyrazol-4-yl)-3H-imidazo[4,5-b]pyridine], the IC50 in assay [5] is less than 0.1 µM; in assay [6], greater than 0.1 µM; in assay [1] it was greater than 0.1 µM; in assay [2], greater than 1 µM; in assay [3], greater than 1 µM.
Take `OC(c1ccc(-n2cc(-c3ccnc4[nH]cnc34)cn2)nc1)(C1CCOCC1)C(F)(F)F` (stereo not shown) [Example 1134, 1-(6-(4-(3H-imidazo[4,5-b]pyridin-7-yl)-1H-pyrazol-1-yl)pyridin-3-yl)-2,2,2-trifluoro-1-(tetrahydro-2H-pyran-4-yl)ethanol]: the IC50 was less than 0.1 µM in assay [5]; less than 0.1 µM in assay [1]; greater than 1 µM in assay [2]; greater than 1 µM in assay [3]; greater than 10 µM in assay [4].
As for `O=C(NCC(F)(F)F)n1cc(-c2ccnc3[nH]cnc23)cn1` [Example 1064, N-(2,2,2-trifluoroethyl)-4-(3H-imidazo[4,5-b]pyridin-7-yl)-1H-pyrazole-1-carboxamide], the IC50 in assay [5] is less than 0.5 µM; in assay [6] it was less than 0.5 µM; in assay [1], less than 0.5 µM; in assay [2], less than 0.5 µM; in assay [3], greater than 10 µM.
With `N#CC(c1ccc(-n2cc(-c3ccnc4[nH]cnc34)cn2)nc1)N1CCOCC1` (stereo not shown) [Example 1112, 2-(6-(4-(3H-imidazo[4,5-b]pyridin-7-yl)-1H-pyrazol-1-yl)pyridin-3-yl)-2-morpholinoacetonitrile], the IC50 in assay [6] is greater than 0.5 µM; in assay [1], greater than 1 µM; in assay [2], greater than 1 µM; in assay [3], 10 µM; in assay [4], greater than 10 µM.
In the case of `FC(F)(F)Cc1ccc(-n2cc(-c3ccnc4[nH]cnc34)cn2)nc1` [Example 1084, 7-(1-(5-(2,2,2-trifluoroethyl)pyridin-2-yl)-1H-pyrazol-4-yl)-3H-imidazo[4,5-b]pyridine], the IC50 in assay [3] was greater than 1 µM; in assay [4], greater than 10 µM.
As to `O=C(NC(C1CCCC1)C(F)(F)F)n1cc(-c2ccnc3[nH]c(=O)[nH]c23)cn1` (stereo not shown) [Example 1041, N-(1-cyclopentyl-2,2,2-trifluoroethyl)-4-(2,3-dihydro-2-oxo-1H-imidazo[4,5-b]pyridin-7-yl)-1H-pyrazole-1-carboxamide], the IC50 is greater than 1 µM in assay [5]; greater than 1 µM in assay [6]; greater than 10 µM in assay [1]; greater than 1 µM in assay [2]; greater than 10 µM in assay [3].
Regarding `CN1CCN(CC(c2ccc(-n3cc(-c4ccnc5[nH]cnc45)cn3)nc2)C(F)(F)F)CC1` (stereo not shown) [Example 1222, 7-(1-(5-(1,1,1-trifluoro-3-(4-methylpiperazin-1-yl)propan-2-yl)pyridin-2-yl)-1H-pyrazol-4-yl)-3H-imidazo[4,5-b]pyridine], the IC50 in assay [3] is greater than 0.8 µM; in assay [4], greater than 1 µM.
Regarding `N#CC1(NC(=O)n2cc(-c3ccnc4[nH]c(=O)[nH]c34)cn2)CC1` [Example 1032, N-(1-cyanocyclopropyl)-4-(2,3-dihydro-2-oxo-1H-imidazo[4,5-b]pyridin-7-yl)-1H-pyrazole-1-carboxamide], the IC50 was less than 0.5 µM in assay [5]; less than 0.5 µM in assay [6]; less than 0.5 µM in assay [1]; less than 0.5 µM in assay [2]; greater than 10 µM in assay [3].
For the compound `CC(NC(=O)n1cc(-c2ccnc3[nH]c(=O)[nH]c23)cn1)C(F)(F)F` (stereo not shown) [Example 1030, N-(1,1,1-trifluoropropan-2-yl)-4-(2,3-dihydro-2-oxo-1H-imidazo[4,5-b]pyridin-7-yl)-1H-pyrazole-1-carboxamide], the IC50 in assay [5] turned out to be 0.039 µM; in assay [6], 0.066 µM; in assay [1], 0.43 µM; in assay [2], 0.093 µM; in assay [3], 10 µM.
The matching figures for `CC(C)C(C#N)NC(=O)n1cc(-c2ccnc3[nH]c(=O)[nH]c23)cn1` (stereo not shown) [Example 1044, N-(1-cyano-2-methylpropyl)-4-(2,3-dihydro-2-oxo-1H-imidazo[4,5-b]pyridin-7-yl)-1H-pyrazole-1-carboxamide]: less than 0.5 µM, less than 0.5 µM, less than 0.5 µM, less than 0.5 µM and 10 µM.
With `O=C(NCC(F)(F)F)N1CCN(c2ccnc3[nH]c(-c4ccccc4)nc23)CC1` [Example 1022, N-(2,2,2-trifluoroethyl)-4-(2-phenyl-3H-imidazo[4,5-b]pyridin-7-yl)piperazine-1-carboxamide], the IC50 in assay [5] was less than 0.5 µM; in assay [6], less than 0.5 µM; in assay [1], less than 0.5 µM; in assay [2] it was less than 0.5 µM; in assay [3] it was greater than 10 µM.
